# Laboratory results taken from patent US6525001B1, “Substituted pyrimidine and pyridine herbicides” (Mid-American Commercialization Corporation, priority 1997, dated 2003).
# Tests used:
# Type in all cases: in vivo
# Design in all cases: key: 0 is no effect; 10 is complete control
# [1] = system: blackgrass (Alopecurus myosuroides); test: Test B pre-/postemergence
# How it was run: (§1)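 Scored visually 0 (none) to 10 (complete control) against untreated plants after twelve to sixteen greenhouse days. Test chemicals, formulated in surfactant-containing non-phytotoxic solvent, applied to soil after planting and, separately, onto 1- to 4-leaf (2–18 cm) plants.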
# [2] = system: wheat (Triticum aestivum); test: Test B pre-/postemergence
# How it was run: as §1
# [3] = system: purple nutsedge (Cyperus rotundus); test: Test B pre-/postemergence
# How it was run: as §1
# [4] = system: crabgrass (Digitaria sanguinalis); test: Test B pre-/postemergence
# How it was run: as §1
# rape (Brassica napus) = test: Test B pre-/postemergence
# How it was run: as §1
# corn (Zea mays) = test: Test B pre-/postemergence
# How it was run: as §1
# [5] = system: velvetleaf (Abutilon theophrasti); test: Test B pre-/postemergence
# How it was run: as §1
# [6] = system: cocklebur (Xanthium strumarium); test: Test B pre-/postemergence
# How it was run: as §1
# soybean (Glycine max) = test: Test B pre-/postemergence
# How it was run: as §1
# [7] = system: pigweed (Amaranthus retroflexus); test: Test B pre-/postemergence
# How it was run: as §1
# [8] = system: sugar beet (Beta vulgaris); test: Test B pre-/postemergence
# How it was run: as §1
# rice (Oryza sativa) = test: Test B flood test
# How it was run: (§2)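 Flood test on plants grown to the 2-leaf stage; treated plants kept in greenhouse twelve to sixteen days, then visually rated against controls on a 0 (no effect) to 10 (complete control) scale.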
# [9] = system: duck salad (Heteranthera limosa); test: Test B flood test
# How it was run: as §2
# [10] = system: smallflower flatsedge (Cyperus difformis); test: Test B flood test
# How it was run: as §2
# [11] = system: bamyardgrass (Echinochloa crus-galli); test: Test B flood test
# How it was run: as §2
# [12] = Rate 62 g/ha, Postemergence (flood test)
# [13] = Rate 125 g/ha, Postemergence, flood test
# [14] = Rate 250 g/ha, Postemergence (flood test species)
# [15] = Rate 500 g/ha, Postemergence (flood test species)
smiles,measurement,setting,value
Cc1cnc(-c2ccc(Cl)cc2)nc1Cn1ccc(C(F)(F)F)n1 [Compound 6],"Plant response rating, Blackgrass","[1]; Rate 62 g/ha, Postemergence",0
same,Blackgrass plant response rating,"[1]; Rate 62 g/ha, Preemergence",0
same,"Plant response rating, Blackgrass","[1]; Rate 125 g/ha, Postemergence",2
same,Blackgrass plant response rating,"[1]; Rate 125 g/ha, Preemergence",0
same,"Plant response rating, Blackgrass","[1]; Rate 250 g/ha, Postemergence",2
same,"Plant response rating, Blackgrass","[1]; Rate 250 g/ha, Preemergence",0
same,"Plant response rating, Blackgrass","[1]; Rate 500 g/ha, Postemergence",2
same,"Plant response rating, Blackgrass","[1]; Rate 500 g/ha, Preemergence",4
same,"Plant response rating, Wheat","[2]; Rate 62 g/ha, Postemergence",1
same,Wheat plant response rating,"[2]; Rate 62 g/ha, Preemergence",0
same,"Plant response rating, Wheat","[2]; Rate 125 g/ha, Postemergence",2
same,Wheat plant response rating,"[2]; Rate 125 g/ha, Preemergence",0
same,"Plant response rating, Wheat","[2]; Rate 250 g/ha, Postemergence",2
same,"Plant response rating, Wheat","[2]; Rate 250 g/ha, Preemergence",0
same,"Plant response rating, Wheat","[2]; Rate 500 g/ha, Postemergence",3
same,"Plant response rating, Wheat","[2]; Rate 500 g/ha, Preemergence",0
same,"Plant response rating, Nutsedge","[3]; Rate 62 g/ha, Postemergence",2
same,Nutsedge plant response rating,"[3]; Rate 62 g/ha, Preemergence",0
same,Nutsedge plant response rating,"[3]; Rate 125 g/ha, Preemergence",0
same,"Plant response rating, Nutsedge","[3]; Rate 250 g/ha, Postemergence",2
same,"Plant response rating, Nutsedge","[3]; Rate 250 g/ha, Preemergence",0
same,"Plant response rating, Nutsedge","[3]; Rate 500 g/ha, Postemergence",3
same,"Plant response rating, Nutsedge","[3]; Rate 500 g/ha, Preemergence",0
same,"Plant response rating, Crabgrass","[4]; Rate 62 g/ha, Postemergence",5
same,Crabgrass plant response rating,"[4]; Rate 62 g/ha, Preemergence",1
same,"Plant response rating, Crabgrass","[4]; Rate 125 g/ha, Postemergence",8
same,Crabgrass plant response rating,"[4]; Rate 125 g/ha, Preemergence",2
same,"Plant response rating, Crabgrass","[4]; Rate 250 g/ha, Postemergence",8
same,"Plant response rating, Crabgrass","[4]; Rate 250 g/ha, Preemergence",8
same,"Plant response rating, Crabgrass","[4]; Rate 500 g/ha, Postemergence",9
same,"Plant response rating, Crabgrass","[4]; Rate 500 g/ha, Preemergence",10
same,"Plant response rating, Rape","rape (Brassica napus); Rate 62 g/ha, Postemergence",8
same,Rape plant response rating,"rape (Brassica napus); Rate 62 g/ha, Preemergence",0
same,"Plant response rating, Rape","rape (Brassica napus); Rate 125 g/ha, Postemergence",8
same,Rape plant response rating,"rape (Brassica napus); Rate 125 g/ha, Preemergence",2
same,"Plant response rating, Rape","rape (Brassica napus); Rate 250 g/ha, Postemergence",8
same,"Plant response rating, Rape","rape (Brassica napus); Rate 250 g/ha, Preemergence",4
same,"Plant response rating, Rape","rape (Brassica napus); Rate 500 g/ha, Postemergence",8
same,"Plant response rating, Rape","rape (Brassica napus); Rate 500 g/ha, Preemergence",7
same,"Plant response rating, Corn","corn (Zea mays); Rate 62 g/ha, Postemergence",3
same,Corn plant response rating,"corn (Zea mays); Rate 62 g/ha, Preemergence",0
same,"Plant response rating, Corn","corn (Zea mays); Rate 125 g/ha, Postemergence",3
same,Corn plant response rating,"corn (Zea mays); Rate 125 g/ha, Preemergence",0
same,"Plant response rating, Corn","corn (Zea mays); Rate 250 g/ha, Postemergence",3
same,"Plant response rating, Corn","corn (Zea mays); Rate 250 g/ha, Preemergence",0
same,"Plant response rating, Corn","corn (Zea mays); Rate 500 g/ha, Postemergence",3
same,"Plant response rating, Corn","corn (Zea mays); Rate 500 g/ha, Preemergence",0
same,"Plant response rating, Velvetleaf","[5]; Rate 62 g/ha, Postemergence",7
same,Velvetleaf plant response rating,"[5]; Rate 62 g/ha, Preemergence",1
same,"Plant response rating, Velvetleaf","[5]; Rate 125 g/ha, Postemergence",7
same,Velvetleaf plant response rating,"[5]; Rate 125 g/ha, Preemergence",2
same,"Plant response rating, Velvetleaf","[5]; Rate 250 g/ha, Postemergence",8
same,"Plant response rating, Velvetleaf","[5]; Rate 250 g/ha, Preemergence",2
same,"Plant response rating, Velvetleaf","[5]; Rate 500 g/ha, Postemergence",8
same,"Plant response rating, Velvetleaf","[5]; Rate 500 g/ha, Preemergence",3
same,"Plant response rating, Cocklebur","[6]; Rate 62 g/ha, Postemergence",5
same,Cocklebur plant response rating,"[6]; Rate 62 g/ha, Preemergence",0
same,"Plant response rating, Cocklebur","[6]; Rate 125 g/ha, Postemergence",6
same,Cocklebur plant response rating,"[6]; Rate 125 g/ha, Preemergence",0
same,"Plant response rating, Cocklebur","[6]; Rate 250 g/ha, Postemergence",7
same,"Plant response rating, Cocklebur","[6]; Rate 250 g/ha, Preemergence",0
same,"Plant response rating, Cocklebur","[6]; Rate 500 g/ha, Postemergence",7
same,"Plant response rating, Cocklebur","[6]; Rate 500 g/ha, Preemergence",0
same,"Plant response rating, Soybean","soybean (Glycine max); Rate 62 g/ha, Postemergence",6
same,Soybean plant response rating,"soybean (Glycine max); Rate 62 g/ha, Preemergence",0
same,"Plant response rating, Soybean","soybean (Glycine max); Rate 125 g/ha, Postemergence",6
same,Soybean plant response rating,"soybean (Glycine max); Rate 125 g/ha, Preemergence",0
same,"Plant response rating, Soybean","soybean (Glycine max); Rate 250 g/ha, Postemergence",6
same,"Plant response rating, Soybean","soybean (Glycine max); Rate 250 g/ha, Preemergence",0
same,"Plant response rating, Soybean","soybean (Glycine max); Rate 500 g/ha, Postemergence",6
same,"Plant response rating, Soybean","soybean (Glycine max); Rate 500 g/ha, Preemergence",0
same,"Plant response rating, Redroot pigweed","[7]; Rate 62 g/ha, Postemergence",5
same,Redroot pigweed plant response rating,"[7]; Rate 62 g/ha, Preemergence",0
same,"Plant response rating, Redroot pigweed","[7]; Rate 125 g/ha, Postemergence",7
same,Redroot pigweed plant response rating,"[7]; Rate 125 g/ha, Preemergence",3
same,"Plant response rating, Redroot pigweed","[7]; Rate 250 g/ha, Postemergence",9
same,"Plant response rating, Redroot pigweed","[7]; Rate 250 g/ha, Preemergence",6
same,"Plant response rating, Redroot pigweed","[7]; Rate 500 g/ha, Postemergence",9
same,"Plant response rating, Redroot pigweed","[7]; Rate 500 g/ha, Preemergence",6
same,"Plant response rating, Sugarbeets","[8]; Rate 62 g/ha, Postemergence",7
same,Sugarbeets plant response rating,"[8]; Rate 62 g/ha, Preemergence",0
same,"Plant response rating, Sugarbeets","[8]; Rate 125 g/ha, Postemergence",8
same,Sugarbeets plant response rating,"[8]; Rate 125 g/ha, Preemergence",3
same,"Plant response rating, Sugarbeets","[8]; Rate 250 g/ha, Postemergence",8
same,"Plant response rating, Sugarbeets","[8]; Rate 250 g/ha, Preemergence",9
same,"Plant response rating, Sugarbeets","[8]; Rate 500 g/ha, Postemergence",9
same,"Plant response rating, Sugarbeets","[8]; Rate 500 g/ha, Preemergence",10
same,"Plant response rating, Rice",rice (Oryza sativa); [12],1
same,"Plant response rating, Rice",rice (Oryza sativa); [13],2
same,"Plant response rating, Rice",rice (Oryza sativa); [14],2
same,"Plant response rating, Rice",rice (Oryza sativa); [15],3
same,"Plant response rating, Ducksalad",[9]; [12],0
same,"Plant response rating, Ducksalad",[9]; [13],0
same,"Plant response rating, Ducksalad",[9]; [14],0
same,"Plant response rating, Ducksalad",[9]; [15],6
same,"Plant response rating, S. Flatsedge",[10]; [12],3
same,"Plant response rating, S. Flatsedge",[10]; [13],5
same,"Plant response rating, S. Flatsedge",[10]; [14],7
same,"Plant response rating, S. Flatsedge",[10]; [15],7
same,"Plant response rating, Barnyardgrass",[11]; [12],0
same,"Plant response rating, Barnyardgrass",[11]; [13],1
same,"Plant response rating, Barnyardgrass",[11]; [14],2
same,"Plant response rating, Barnyardgrass",[11]; [15],3
